Legend:
[1] = solubility and dissolution rate in aqueous media; format: physicochemical
Text: Even at a lower pH of 1, the dissolution rate of (R)-2-amino-7-[4-fluoro-2-(6-methoxy-pyridin-2-yl)-phenyl]-4-methyl-7,8-dihydro-6H-pyrido[4,3-d]pyrimidin-5-one is too slow. The present inventors have discovered that, when (R)-2-amino-7-[4-fluoro-2-(6-methoxy-pyridin-2-yl)-phenyl]-4-methyl-7,8-dihydro-6H-pyrido[4,3-d]pyrimidin-5-one is in the presence of a surfactant or an acid, the problems of a low solubility and a slow dissolution rate are overcome, resulting in (R)-2-amino-7-[4-fluoro-2-(6-methoxy-pyridin-2-yl)-phenyl]-4-methyl-7,8-dihydro-6H-pyrido[4,3-d]pyrimidin-5-one being soluble in aqueous solution and a dissolution rate that is unexpectedly faster and higher.

[2] = particle size by laser light diffraction; format: physicochemical; settings: micronized, screened through #25 screen
Text: (R)-2-Amino-7-[4-fluoro-2-(6-methoxy-pyridin-2-yl)-phenyl]-4-methyl-7,8-dihydro-6H-pyrido[4,3-d]pyrimidin-5-one was micronized and screened through a #25 screen to a D average particle size of about 2 microns, with laser light diffraction yielding the following results: D(10) 0.78 μm, D(50) 2.18 μm, and D(90) 3.95 μm. The micronized (R)-2-amino-7-[4-fluoro-2-(6-methoxy-pyridin-2-yl)-phenyl]-4-methyl-7,8-dihydro-6H-pyrido[4,3-d]pyrimidin-5-one was then screened and added to a mixing bin along with the succinic acid and part A (50%) of the microcrystalline cellulose. The contents in the mixing bin were mixed for 150 revolutions, screened through a #40 screen and combine with a screened (#40 screen) mixture of AEROSIL 200, crospovidone, and the remaining other part B (50%) of the microcrystalline cellulose. This combination was mixed for 250 revolutions and screened through a #40 screen, and then combine with a first frozen and then milled mixture of vitamin E TPGS (screen no. 0063 using a Fitz mill) and magnesium stearate that was passed through at #30 mesh, to form a final combination, which was then blended together for 150 revolutions and encapsulated in a hard gelatin capsule using an encapsulation machine.

solubility ([1]; aqueous media with a pH above 3): very low solubility | dissolution rate ([1]; pH of 1): too slow | D(10) particle size [2]: 0.78 μm | D(50) particle size [2]: 2.18 μm | D(90) particle size [2]: 3.95 μm
Compound: COc1cccc(-c2cc(F)ccc2[C@H]2Cc3nc(N)nc(C)c3C(=O)N2)n1 [(R)-2-amino-7-[4-fluoro-2-(6-methoxy-pyridin-2-yl)-phenyl]-4-methyl-7,8-dihydro-6H-pyrido[4,3-d]pyrimidin-5-one]
